This note sets out measurements from paper PMC1839166, “Type III Effector Activation via Nucleotide Binding, Phosphorylation, and Host Target Interaction” (PLoS Pathogens, 2007).

Structures are written as SMILES.

The assay concerns the target T1, AvrB (Pseudomonas savastanoi, UniProt P13835).
T1 construct: recombinant in E. coli BL21 Rosetta from pProEX-HTa; N-terminal His tag removed with TEV protease; residues 16 to 319 modelled in the ADP complex; 36 kDa
The experiment in a line: X-ray crystallography, crystal soak. The class given is binding. The settings on record: 5 mM nucleotide soak about 1 d, pH 7.5, with and without 5 mM MgCl2; lower lobe pocket (Y65, R99, R266).

T1 sequence (P13835 whole entry, the tested form may be a part): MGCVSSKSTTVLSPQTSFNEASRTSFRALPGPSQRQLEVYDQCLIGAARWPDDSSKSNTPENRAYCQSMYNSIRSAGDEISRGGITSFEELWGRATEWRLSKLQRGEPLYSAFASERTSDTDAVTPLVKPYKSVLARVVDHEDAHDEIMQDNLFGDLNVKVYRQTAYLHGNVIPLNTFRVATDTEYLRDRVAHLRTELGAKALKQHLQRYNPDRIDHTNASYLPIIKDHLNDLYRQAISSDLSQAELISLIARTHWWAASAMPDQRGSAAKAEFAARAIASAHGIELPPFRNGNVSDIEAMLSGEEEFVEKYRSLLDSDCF

In the case of `Nc1ncnc2c1ncn2[C@@H]1O[C@H](COP(=O)(O)OP(=O)(O)O)[C@@H](O)[C@H]1O` [ADP], the “X-ray crystallography, crystal soak” value is recorded as “We found that crystallized AvrB could bind ADP within the lower lobe pocket”.
